Laboratory results taken from US20090311246A1, “Method of Enhancing Remyelination in Demyelinating Diseases of the Central Nervous System” (priority 2008, published 2009).
Entries after “also recorded” stand apart in the source; their conditions may differ.

What was measured:
[1] = system: sera from SFV-infected WT and γδ KO mice; experiment: ELISA of sera from SFV-infected WT and γδ KO mice against SFV, E2 peptides, PPD and rMOG; assay type: binding
[2] = system: Normal Rabbit Serum; experiment: Indirect ELISA of normal rabbit serum/IgG against viral and myelin antigens; assay type: binding; details: 10^−2 diluted
[3] = system: SFV-infected WT and γδ KO mice; experiment: E2 137-151 peptide immunization during SFV disease: histopathology, remyelination in one micron brain sections; assay type: in vivo; details: for Remyelination in KO mice: peptide-immunized SFV-infected γδ KO mice, day 28 pi
Description: FIG. 4 Remyelination in E2 137-151 immunized, SFV-infected WT and γδ-KO B6 mice. All figures come from one micron epoxy sections taken from brain tissues, fixed in 2.5% glutaraldehyde/1% osmium tetroxide, embedded in epoxy resin, stained with toluidine blue and photographed by light microscopy.
(§1) In order to be able to detect the de- and remyelination accurately, at the end of the experiment, mice will be sacrificed by an overdose of sodium pentobarbital and perfused by intracardiac puncture with Trumps fixative, containing 4% paraformaldehyde and 1% glutaraldehyde. Brains and spinal cords are removed and post fixed in osmium textroxide. Each brain is sectioned coronally into three pieces by cuts through infandibulum and optic chiasm. Spinal cord tissues will be also harvested and processed. Every third block (10-12 blocks per spinal cord, cervical to lumbar range) will be embedded, along with brain sections, in Araldite plastic. The embedded tissues will be cross-sectioned at 1 μm thickness, and the slides stained with toluidine blue or 4% paraphenylenediamine to highlight the myelin sheets. We have studied the one-micron thin sections of the brains of SFV-infected WT and KO on days of 21-42 postinfection.
as §1, with “[…] These lesions were impossible to quantitate due to very small sizes of nerve fibers. Consequently we plan to study” for “The embedded tissues will be cross-sectioned at 1 μm thickness, and”, “cross” for “slides stained with toluidine blue or 4% paraphenylenediamine to highlight the myelin sheets. We have studied the one-micron thin”, “spinal cords to quantitate these lesins, as has been previously reported (71). […]” for “the brains of SFV-infected WT and KO on days of 21-42 postinfection.”

[4] = system: SFV-infected WT and γδ KO mice; experiment: E2 137-151 peptide immunization during SFV disease: serum antibody response (ELISA); assay type: in vivo
Description: Optical densities (OD) (3A) and ratios (3B) of Non-immunized/Immunized, WT and KO, of ELISA responses to SFV and to E2 peptide, 137-151 is shown. Samples were collected on days 15, 21, 28 and 35 after intraperitoneal infection of B6 mice with SFV and immunization with E2 137-151. The dilutions for sera were 1:80, Amount of antibody is shown as mean optical density (OD) of sera from three experiments±standard error of the mean (SEM). The background OD is subtracted from each time point.
To measure the antibody response of both WT and γδ KO mice against SFV and two of the peptides of the SFV envelope protein, E2, an indirect ELISA was performed. Sera were pooled from 4-6 SFV-infected WT, and 3 KO, mice on days 0, 7, 14, 21 and 35 pi. Briefly, Immunolon 2HB 96 well microtiter plates (VWR, Bridge Port, N.J.) were coated with 1 μg/well of each antigen in 100 μl/well carbonate buffer overnight at room temperature. After washing, the plates were blocked and serum samples were added. […] After washing, biotinylated goat anti-mouse Igs (BD Pharmingen, Torreyana, Calif.), Strepavidin conjugated to Horse Radish Peroxidase (Vector Laboratories, Burlingame, Calif.), and OPD substrate (Sigma, St. Louis, Mo.) were used, as previously described (4, 9). […] Values were considered to be positive when they were >0.3 OD units and exceeded the mean value plus three standard deviations for antibody response on day 0 pi of mice of the same strain.
WT and KO mice were immunized subcutaneously with E2 137-151 (0.5 mg/injection or 25 mg/kg, based on the average weight of 20 g/mouse) in IFA on the day of SFV-infection. Additional injections of E2 137/IFA were performed on days 5 and 15 for WT and KO mice. Mice are sacrificed on days 15, 21, 35 and 42 pi and sera were tested by ELISA for reactivity with SFV and its peptides. […] This immunization, however, appeared to have suppressed the formation of anti-E2 137-151 antibody in SFV-infected, E2 137-151-immunized WT mice.

`CC[C@H](C)[C@H](NC(=O)[C@H](CCC(=O)O)NC(=O)[C@H](CCCCN)NC(=O)CNC(=O)[C@H](Cc1ccc(O)cc1)NC(=O)[C@H](Cc1c[nH]cn1)NC(=O)[C@@H]1CCCN1C(=O)[C@H](CCCNC(=N)N)NC(=O)[C@@H](NC(=O)[C@@H](NC(=O)[C@H](Cc1ccccc1)NC(=O)[C@H](CCCCN)NC(=O)[C@H](CCC(=O)O)NC(=O)[C@H](CCCNC(=N)N)NC(=O)CN)[C@@H](C)O)[C@@H](C)CC)C(=O)O` [E2 137-151] was tested, and the “Net change in the level of antibody, D0 WT” value ([1]; WT mice, day 0) was 0 nano gr, the “Net change in the level of antibody, D7 WT” value ([1]; WT mice, day 7 pi, ± SD) was 72 ± 28 nano gr and the “Net change in the level of antibody, D14 WT” value ([1]; WT mice, day 14 pi, ± SD) was 565 ± 33 nano gr. For the same compound, the “Net change in the level of antibody, D21 WT” value ([1]; WT mice, day 21 pi, ± SD) was 1196 ± 61 nano gr, the “Net change in the level of antibody, D35 WT” value ([1]; WT mice, day 35 pi, ± SD) was 951 ± 50 nano gr and the “Reactivity of sera from SFV-infected WT mice” value ([1]; WT, sera 1:80, day 7 pi increasing to day 35) was “reacted strongly”. The “Net change in the level of antibody, D0 KO” value ([1]; γδ KO mice, day 0) was 0 nano gr, the “Net change in the level of antibody, D7 KO” value ([1]; γδ KO mice, day 7 pi, ± SD) was 39 ± 25 nano gr and the “Net change in the level of antibody, D14 KO” value ([1]; γδ KO mice, day 14 pi, ± SD) was 36 ± 19 nano gr. The “Net change in the level of antibody, D21 KO” value ([1]; γδ KO mice, day 21 pi, ± SD) was 46.5 ± 19 nano gr, the “Net change in the level of antibody, D35 KO” value ([1]; γδ KO mice, day 35 pi, ± SD) was 41 ± 28 nano gr and the “Reactivity of sera from SFV-infected γδ KO mice” value ([1]; γδ KO, sera 1:80) was “marginally reacted”. For the same compound, the “Normal Rabbit Serum, OD at 490 nm” value [2] was 0.173 OD, the “Remyelination in WT mice” value ([3]; peptide-immunized SFV-infected WT mice) was “normal remyelination” and the “Remyelination in KO mice” value [3] was “advanced remyelination”. For the same compound, the “Remyelination in KO mice” value ([3]; listed as E2 137-151 peptide) was “early remyelination; also recorded: promoted remyelination”, the “Formation of anti-E2 137-151 antibody in SFV-infected, immunized WT mice” value ([4]; 0.5 mg/injection sc in IFA, WT mice) was “suppressed” and the “Ratio of antibody production to SFV, immunized versus non-immunized” value ([4]; KO and WT mice) was “did not increase”. The “Antibody to E2 137-151 peptide after immunization” value ([4]; SFV-infected KO mice) was “increased the antibody to this peptide only” and the “Ratio of KO/WT anti E2 137-151 antibody production” value ([4]; immunized versus non-immunized) was “significantly increased”.
